According to patent US20120195938A1, “FORMULATIONS AND METHODS FOR RECOVERY FROM DENTAL SURGERY” (priority 2007, published 2012):

Assays:
[1] = system: glycoprotein-IIβ (GPIIβ or GPIIB); test: RT-PCR gene expression in hMSCs: GPIIB; assay type: cell-based, Human; conditions: hMSC, growth media, melatonin 3 × 10^−7 molar, dexamethasone 1 × 10^−7 molar
Method: (§1) Human mesenchymal stem cells (hMSCs) were purchased through LONZA BIOSCIENCES. These cells were seeded at a density of approximately 7500 cells/cm^2 upon receipt. Since hMSCs spontaneously differentiate into various cell types after 8 to 9 passages, cells passaged 3 to 4 times were used for each of the examples disclosed herein. Supplemented DMEM media was refreshed every third day during culture.
(§2) Cultures of hMSCs were passaged in growth medium until a sufficient number of flasks for differentiation studies were obtained. Growth medium was removed and replaced with a variety of experimental solutions as described more fully hereinbelow. For qualitative alkaline phosphatase assays described below, the cells were seeded on collagen coated cover slips (BIOCOAT®) at 2000 cells/cm^2. A volume of 3 ml of media was placed into the wells for 5 and 15 days according to the procedures below. For the reverse-transcriptase polymerase chain reaction studies described below, the cells were cultured in their respective media for 5, 10, or 20 days.
(§3) Cells were plated and grown using the general techniques described in Examples 1 and 2. The expression of numerous genes was assessed for cells at Days 5, 10, and 20. Cells were grown in the media as detailed in Tables 1 and 2 below. The expression of the indicated genes was assessed and reported as x-fold increases over the level of normalized gene expression to glyceraldehyde-3-phosphate dehydrogenase (GAPDH) in cells cultured in grown medium (Table 1).
The genes of interest were selected based upon their appearance in platelets and mesenchymal stem cells differentiating into osteoblasts. Glyceraldehyde-3 phosphate dehydrogenase (GAPDH) is a well characterized housekeeper gene for differentiating hMSCs. The primers used were: forward: 5′ […] (SEQ ID No. 1), reverse: […] (SEQ ID No. 2). The gene for bone sialoprotein (BSP) was chosen because it is expressed during the differentiation of hMSCs, prior to the mineralization phase, but represents a mature functioning osteoblast. The primers were forward: 5′ […] (SEQ ID No. 3), reverse: […] (SEQ ID No. 4). The gene BGLAP (osteocalcin) was chosen because it is definitive marker for functioning osteoblasts at 21 days. The primers were: forward: 5′ […] (SEQ ID No. 5), reverse: […] (SEQ ID No. 6). The gene for glycoprotein-IIβ (GPIIβ or GPIIB) was chosen because it is expressed in developing megakaryocytes and found in platelets. The primers were: forward: […] (SEQ ID No. 7), reverse: […] (SEQ ID No. 8).
The reaction protocol was completed in a BIO-RAD CHROMO4 Real Time Detection System using the iScript One-Step RT-PCR Kit (BIO-RAD, Hercules, Calif.). Each reaction mixture contained 100 nM of RNA. […] The data was collected and analyzed using the MC OPTICON software.

[2] = system: Runx2; test: RT-PCR gene expression in hMSCs: Runx2; assay type: cell-based, Human; conditions: hMSC, growth media, melatonin 3 × 10^−7 molar, dexamethasone 1 × 10^−7 molar
Method: as §1, §2, §3
The reaction protocol was completed in a BIO-RAD CHROMO4 Real Time Detection System using the iScript One-Step RT-PCR Kit (BIO-RAD, Hercules, Calif.). Each reaction mixture contained […] of RNA. The 50 μL reaction mixture was placed in the thermal cycler and incubated at 55° C. for 10 minutes, 5 minutes at 95° C. for cDNA synthesis and reverse transcriptase inactivation. The PCR cycling was completed after 45 cycles; 10 seconds at 95° C., 30 seconds at 57° C. A melt curve analysis was completed; 1 minute at 95° C., 1 minute at 55° C. and 10 seconds at 55° C. for 80 cycles, increasing 0.5° C. each cycle. The data was collected and analyzed using the MC OPTICON software.
For the second PCR run, the gene Runx2 was included instead of BSP. Runx2 is a transcription factor required for all remaining steps of osteoblastic differentiation to occur. Accordingly, it is a specific early marker of osteoblastic differentiation.

[3] = system: alkaline phosphatase activity in hMSC cultures; test: Quantitative alkaline phosphatase assay in hMSC cultures; assay type: cell-based, Human; conditions: differentiation medium, dexamethasone 1×10^−7 M, melatonin 3×10^−7 M, 3.5% (v/v) PRP
Method: Human mesenchymal stem cells (hMSCs) were purchased through LONZA BIOSCIENCES. These cells were seeded at a density of approximately 7500 cells/cm^2 upon receipt. Since hMSCs spontaneously differentiate into various cell types after 8 to 9 passages, cells passaged 3 to 4 times were used for each of the examples disclosed herein. Supplemented DMEM media was refreshed every third day during culture. Cultures of hMSCs were passaged in growth medium until a sufficient number of flasks for differentiation studies were obtained. Growth medium was removed and replaced with a variety of experimental solutions as described more fully hereinbelow. For qualitative alkaline phosphatase assays described below, the cells were seeded on collagen coated cover slips (BIOCOAT®) at 2000 cells/cm^2. A volume of 3 ml of media was placed into the wells for 5 and 15 days according to the procedures below. […] At 5 days and 15 days, cultures in each condition were quantitatively assessed for alkaline phosphatase activity (μg of alkaline phosphatase per mL of solution). Quantitative alkaline phosphatase assays (ANASPEC, California) were completed according to manufacturers' instructions. […] The plate was incubated at room temperature for 30 minutes and the developing color was measured immediately using a BIO-TEK KINETIC MICROPLATE READER Model E[…] […]

[4] = system: BGLAP (osteocalcin); test: RT-PCR gene expression in hMSCs: osteocalcin; conditions: hMSC, growth media, melatonin 3 × 10^−7 molar, dexamethasone 1 × 10^−7 molar
[5] = system: human periodontal ligament cells; conditions: media supplemented; Hayami et al., Bone (2007); cited from earlier work

| SMILES | GPIIB mRNA expression, x-fold increase compared to untreated growth control ([1]; Day 10, n = 3) | GPIIB mRNA expression, x-fold increase compared to untreated growth control ([1]; Day 20, n = 3) | Runx2 mRNA expression, x-fold increase compared to untreated growth control ([2]; Day 5, n = 3) | Runx2 mRNA expression, x-fold increase compared to untreated growth control ([2]; Day 10, n = 3) | Runx2 mRNA expression, x-fold increase compared to untreated growth control ([2]; Day 20, n = 3) | alkaline phosphatase activity ([3]; Day 5, FIG. 1B) | alkaline phosphatase activity ([3]; Day 15, FIG. 1B) | Osteocalcin mRNA expression, x-fold increase compared to untreated growth control ([4]; Day 5, n = 3) | Osteocalcin mRNA expression, x-fold increase compared to untreated growth control ([4]; Day 5, n = 3, listed as melatonin) | Osteocalcin mRNA expression, x-fold increase compared to untreated growth control ([4]; Day 10, n = 3) | Osteocalcin mRNA expression, x-fold increase compared to untreated growth control ([4]; Day 20, n = 3) | osteoblast-specific cell markers in culture [5] |
| --- | --- | --- | --- | --- | --- | --- | --- | --- | --- | --- | --- | --- |
| COc1ccc2[nH]cc(CCNC(C)=O)c2c1 [Melatonin, melatonin] | 968.86 x-fold | 2432.97 x-fold | 269.75 x-fold | 14.39 x-fold | 129.83 x-fold | showed an effect | elevated alkaline phosphatase activity | 260.38 x-fold | high levels | 1269.3 x-fold | 1295.79 x-fold |  |
| C[C@@H]1C[C@H]2[C@@H]3CCC4=CC(=O)C=C[C@]4(C)[C@@]3(F)[C@@H](O)C[C@]2(C)[C@@]1(O)C(=O)CO [Dexamethasone, dexamethasone] | 11.59 x-fold | 4993.43 x-fold | 138.04 x-fold | 4.16 x-fold | 15.29 x-fold |  |  | 70.22 x-fold |  | 142.21 x-fold | 998.82 x-fold |  |
| C[C@@H]1C[C@H]2[C@@H]3CCC4=CC(=O)C=C[C@]4(C)[C@@]3(F)[C@@H](O)C[C@]2(C)[C@@]1(O)C(=O)COP(=O)(O)O [dexamethasone sodium phosphate solution, Dexamethasone sodium phosphate] |  |  |  |  |  |  |  |  |  |  |  | increased osteoblast-specific cell markers |
